PMC10905675, “INX-315, a Selective CDK2 Inhibitor, Induces Cell Cycle Arrest and Senescence in Solid Tumors” (Cancer Discovery, 2023)

Tests used:
Assay in all cases: SelectScreen ZLYTE
Format in all cases: biochemical
Conditions in all cases: INX-0315 at 100nM
MET (cMet) = molecular target: T1, MET (cMet) (Homo sapiens, UniProt P08581)
T1 construct: purchased Thermo Fisher Scientific SelectScreen (plus Nanosyn / Reaction Biology for CDK/cyclin lines)
How it was run: (§1)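 INX-315, single point 100 nmol/L, 1% DMSO; then 10-pt titration 1 µmol/L → 0.0495 nmol/L. Standard vendor conditions.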

JAK3 = molecular target: T2, JAK3 (Homo sapiens, UniProt P52333)
T2 construct: purchased Thermo Fisher Scientific SelectScreen (plus Nanosyn / Reaction Biology for CDK/cyclin lines)
T2 sequence (P52333 whole entry): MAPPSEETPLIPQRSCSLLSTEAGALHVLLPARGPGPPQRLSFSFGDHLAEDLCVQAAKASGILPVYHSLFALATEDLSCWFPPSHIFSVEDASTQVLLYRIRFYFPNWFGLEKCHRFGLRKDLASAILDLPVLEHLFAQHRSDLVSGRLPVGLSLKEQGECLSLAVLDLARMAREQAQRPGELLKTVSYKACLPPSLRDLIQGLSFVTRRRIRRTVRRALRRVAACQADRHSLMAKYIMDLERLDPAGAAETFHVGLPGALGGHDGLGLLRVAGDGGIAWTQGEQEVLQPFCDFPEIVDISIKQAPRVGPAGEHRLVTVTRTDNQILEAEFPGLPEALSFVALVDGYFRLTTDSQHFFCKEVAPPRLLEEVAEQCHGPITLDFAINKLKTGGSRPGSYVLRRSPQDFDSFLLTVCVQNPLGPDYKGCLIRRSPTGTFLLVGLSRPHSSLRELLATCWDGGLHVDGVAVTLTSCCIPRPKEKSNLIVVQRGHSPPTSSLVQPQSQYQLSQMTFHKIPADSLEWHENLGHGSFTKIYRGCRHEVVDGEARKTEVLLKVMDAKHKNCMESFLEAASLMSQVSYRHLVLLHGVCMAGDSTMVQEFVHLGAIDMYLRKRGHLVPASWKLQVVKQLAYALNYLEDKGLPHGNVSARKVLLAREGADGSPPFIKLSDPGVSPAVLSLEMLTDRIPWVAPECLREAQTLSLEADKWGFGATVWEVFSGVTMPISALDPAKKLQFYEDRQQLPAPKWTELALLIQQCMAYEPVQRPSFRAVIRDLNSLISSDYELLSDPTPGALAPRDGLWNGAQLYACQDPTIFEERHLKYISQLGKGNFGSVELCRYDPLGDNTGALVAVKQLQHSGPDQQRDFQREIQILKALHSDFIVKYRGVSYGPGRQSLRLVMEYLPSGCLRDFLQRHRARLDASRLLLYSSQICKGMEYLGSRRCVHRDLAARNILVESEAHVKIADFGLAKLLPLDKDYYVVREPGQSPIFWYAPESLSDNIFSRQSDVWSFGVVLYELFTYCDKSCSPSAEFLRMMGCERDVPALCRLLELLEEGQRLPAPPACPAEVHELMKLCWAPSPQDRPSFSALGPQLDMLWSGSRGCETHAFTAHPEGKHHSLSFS
How it was run: as §1

ABL1 G250E = molecular target: T3, ABL1 G250E (Homo sapiens, UniProt P00519, G250E)
T3 construct: purchased Thermo Fisher Scientific SelectScreen (plus Nanosyn / Reaction Biology for CDK/cyclin lines)
How it was run: as §1

ALK = molecular target: T4, ALK (Homo sapiens, UniProt Q9UM73)
T4 construct: purchased Thermo Fisher Scientific SelectScreen (plus Nanosyn / Reaction Biology for CDK/cyclin lines)
How it was run: as §1

BTK = molecular target: T5, BTK (Homo sapiens, UniProt Q06187)
T5 construct: purchased Thermo Fisher Scientific SelectScreen (plus Nanosyn / Reaction Biology for CDK/cyclin lines)
How it was run: as §1

FLT4 (VEGFR3) = molecular target: T6, FLT4 (VEGFR3) (Homo sapiens, UniProt P35916)
T6 construct: purchased Thermo Fisher Scientific SelectScreen (plus Nanosyn / Reaction Biology for CDK/cyclin lines)
How it was run: as §1

SGKL (SGK3) = molecular target: T7, SGKL (SGK3) (Homo sapiens, UniProt Q96BR1)
T7 construct: purchased Thermo Fisher Scientific SelectScreen (plus Nanosyn / Reaction Biology for CDK/cyclin lines)
How it was run: as §1

HIPK3 (YAK1) = molecular target: T8, HIPK3 (YAK1) (Homo sapiens, UniProt Q9H422)
T8 construct: purchased Thermo Fisher Scientific SelectScreen (plus Nanosyn / Reaction Biology for CDK/cyclin lines)
How it was run: as §1

PHKG1 = molecular target: T9, PHKG1 (Homo sapiens, UniProt Q16816)
T9 construct: purchased Thermo Fisher Scientific SelectScreen (plus Nanosyn / Reaction Biology for CDK/cyclin lines)
How it was run: as §1

FRK (PTK5) = molecular target: T10, FRK (PTK5) (Homo sapiens, UniProt P42685)
T10 construct: purchased Thermo Fisher Scientific SelectScreen (plus Nanosyn / Reaction Biology for CDK/cyclin lines)
How it was run: as §1

TBK1 = molecular target: T11, TBK1 (Homo sapiens, UniProt Q9UHD2)
T11 construct: purchased Thermo Fisher Scientific SelectScreen (plus Nanosyn / Reaction Biology for CDK/cyclin lines)
T11 sequence (Q9UHD2 whole entry): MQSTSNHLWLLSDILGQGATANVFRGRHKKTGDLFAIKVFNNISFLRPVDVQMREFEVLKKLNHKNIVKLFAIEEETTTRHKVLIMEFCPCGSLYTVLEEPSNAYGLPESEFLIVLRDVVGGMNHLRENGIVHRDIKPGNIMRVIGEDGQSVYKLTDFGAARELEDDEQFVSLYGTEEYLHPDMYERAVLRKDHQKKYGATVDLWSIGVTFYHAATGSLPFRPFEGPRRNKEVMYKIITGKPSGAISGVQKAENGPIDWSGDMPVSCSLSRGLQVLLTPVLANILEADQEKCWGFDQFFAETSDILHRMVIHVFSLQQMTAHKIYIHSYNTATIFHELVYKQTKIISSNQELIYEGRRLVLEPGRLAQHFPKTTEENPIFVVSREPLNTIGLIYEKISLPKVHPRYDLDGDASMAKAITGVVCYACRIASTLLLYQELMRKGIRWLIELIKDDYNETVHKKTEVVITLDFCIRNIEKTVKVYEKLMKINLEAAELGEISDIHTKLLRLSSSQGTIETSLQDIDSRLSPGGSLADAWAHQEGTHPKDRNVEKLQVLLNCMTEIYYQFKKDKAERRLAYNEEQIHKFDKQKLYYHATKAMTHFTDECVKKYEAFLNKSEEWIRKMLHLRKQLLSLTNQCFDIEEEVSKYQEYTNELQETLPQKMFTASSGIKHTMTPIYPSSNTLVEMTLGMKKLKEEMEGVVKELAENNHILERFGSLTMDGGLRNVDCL
How it was run: as §1

CSNK1G1 (CK1 gamma 1) = molecular target: T12, CSNK1G1 (CK1 gamma 1) (Homo sapiens, UniProt Q9HCP0)
T12 construct: purchased Thermo Fisher Scientific SelectScreen (plus Nanosyn / Reaction Biology for CDK/cyclin lines)
How it was run: as §1

FGFR1 = molecular target: T13, FGFR1 (Homo sapiens, UniProt P11362)
T13 construct: purchased Thermo Fisher Scientific SelectScreen (plus Nanosyn / Reaction Biology for CDK/cyclin lines)
How it was run: as §1

MARK2 = molecular target: T14, MARK2 (Homo sapiens, UniProt Q7KZI7)
T14 construct: purchased Thermo Fisher Scientific SelectScreen (plus Nanosyn / Reaction Biology for CDK/cyclin lines)
T14 sequence (Q7KZI7 whole entry): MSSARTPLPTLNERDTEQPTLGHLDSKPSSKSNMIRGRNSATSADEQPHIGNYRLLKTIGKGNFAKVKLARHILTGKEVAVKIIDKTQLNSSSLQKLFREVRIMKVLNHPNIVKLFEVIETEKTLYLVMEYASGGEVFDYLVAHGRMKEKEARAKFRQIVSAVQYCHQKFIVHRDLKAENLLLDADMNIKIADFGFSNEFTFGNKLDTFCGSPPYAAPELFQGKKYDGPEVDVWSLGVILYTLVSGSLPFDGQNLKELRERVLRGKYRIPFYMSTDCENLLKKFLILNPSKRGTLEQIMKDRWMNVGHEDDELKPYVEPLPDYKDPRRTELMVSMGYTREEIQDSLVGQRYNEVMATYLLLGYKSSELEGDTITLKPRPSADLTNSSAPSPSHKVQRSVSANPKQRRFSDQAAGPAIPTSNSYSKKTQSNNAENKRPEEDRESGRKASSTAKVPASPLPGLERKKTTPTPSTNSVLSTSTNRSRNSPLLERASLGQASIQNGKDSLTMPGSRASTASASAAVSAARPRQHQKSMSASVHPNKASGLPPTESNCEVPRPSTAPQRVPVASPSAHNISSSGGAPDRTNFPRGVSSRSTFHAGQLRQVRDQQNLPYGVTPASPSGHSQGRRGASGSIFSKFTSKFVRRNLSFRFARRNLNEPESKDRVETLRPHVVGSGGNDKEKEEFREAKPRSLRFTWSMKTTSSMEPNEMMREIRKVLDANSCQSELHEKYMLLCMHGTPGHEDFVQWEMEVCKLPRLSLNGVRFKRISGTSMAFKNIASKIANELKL
How it was run: as §1

SRC = molecular target: T15, SRC (Homo sapiens, UniProt P12931)
T15 construct: purchased Thermo Fisher Scientific SelectScreen (plus Nanosyn / Reaction Biology for CDK/cyclin lines)
How it was run: as §1

CDK5/p35 = molecular target: T16, CDK5/p35 (Homo sapiens, UniProt Q00535)
T16 construct: purchased Thermo Fisher Scientific SelectScreen (plus Nanosyn / Reaction Biology for CDK/cyclin lines)
How it was run: as §1

PAK6 = molecular target: T17, PAK6 (Homo sapiens, UniProt Q9NQU5)
T17 construct: purchased Thermo Fisher Scientific SelectScreen (plus Nanosyn / Reaction Biology for CDK/cyclin lines)
How it was run: as §1

PHKG2 = molecular target: T18, PHKG2 (Homo sapiens, UniProt P15735)
T18 construct: purchased Thermo Fisher Scientific SelectScreen (plus Nanosyn / Reaction Biology for CDK/cyclin lines)
How it was run: as §1

MAP3K19 (YSK4) = molecular target: T19, MAP3K19 (YSK4) (Homo sapiens, UniProt Q56UN5)
T19 construct: purchased Thermo Fisher Scientific SelectScreen (plus Nanosyn / Reaction Biology for CDK/cyclin lines)
How it was run: as §1

IKBKB (IKK beta) = molecular target: T20, IKBKB (IKK beta) (Homo sapiens, UniProt O14920)
T20 construct: purchased Thermo Fisher Scientific SelectScreen (plus Nanosyn / Reaction Biology for CDK/cyclin lines)
How it was run: as §1

MAP2K2 (MEK2) = molecular target: T21, MAP2K2 (MEK2) (Homo sapiens, UniProt P36507)
T21 construct: purchased Thermo Fisher Scientific SelectScreen (plus Nanosyn / Reaction Biology for CDK/cyclin lines)
How it was run: as §1

STK24 (MST3) = molecular target: T22, STK24 (MST3) (Homo sapiens, UniProt Q9Y6E0)
T22 construct: purchased Thermo Fisher Scientific SelectScreen (plus Nanosyn / Reaction Biology for CDK/cyclin lines)
How it was run: as §1

PIM1 = molecular target: T23, PIM1 (Homo sapiens, UniProt P11309)
T23 construct: purchased Thermo Fisher Scientific SelectScreen (plus Nanosyn / Reaction Biology for CDK/cyclin lines)
How it was run: as §1

RPS6KA1 (RSK1) = molecular target: T24, RPS6KA1 (RSK1) (Homo sapiens, UniProt Q15418)
T24 construct: purchased Thermo Fisher Scientific SelectScreen (plus Nanosyn / Reaction Biology for CDK/cyclin lines)
T24 sequence (Q15418 whole entry): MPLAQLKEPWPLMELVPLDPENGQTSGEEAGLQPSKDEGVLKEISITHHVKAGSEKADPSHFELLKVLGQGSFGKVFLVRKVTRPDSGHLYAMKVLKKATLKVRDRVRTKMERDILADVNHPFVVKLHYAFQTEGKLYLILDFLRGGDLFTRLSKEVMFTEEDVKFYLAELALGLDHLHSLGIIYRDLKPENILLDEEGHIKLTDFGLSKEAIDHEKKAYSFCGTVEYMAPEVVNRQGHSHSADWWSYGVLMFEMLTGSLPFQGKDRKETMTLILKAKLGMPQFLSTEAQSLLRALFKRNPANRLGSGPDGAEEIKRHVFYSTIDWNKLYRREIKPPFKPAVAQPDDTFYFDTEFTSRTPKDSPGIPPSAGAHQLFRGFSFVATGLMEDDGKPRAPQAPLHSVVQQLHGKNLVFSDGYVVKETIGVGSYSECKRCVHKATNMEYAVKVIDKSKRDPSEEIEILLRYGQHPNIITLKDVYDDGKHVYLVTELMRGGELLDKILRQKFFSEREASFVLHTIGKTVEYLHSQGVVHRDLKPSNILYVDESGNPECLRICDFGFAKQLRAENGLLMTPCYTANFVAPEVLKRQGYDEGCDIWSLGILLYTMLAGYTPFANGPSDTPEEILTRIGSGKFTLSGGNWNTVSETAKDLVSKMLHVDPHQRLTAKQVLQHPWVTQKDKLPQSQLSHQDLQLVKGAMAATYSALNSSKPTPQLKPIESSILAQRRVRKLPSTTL
How it was run: as §1

AKT1 (PKB alpha) = molecular target: T25, AKT1 (PKB alpha) (Homo sapiens, UniProt P31749)
T25 construct: purchased Thermo Fisher Scientific SelectScreen (plus Nanosyn / Reaction Biology for CDK/cyclin lines)
How it was run: as §1

PDGFRA D842V = molecular target: T26, PDGFRA D842V (Homo sapiens, UniProt P16234, D842V)
T26 construct: purchased Thermo Fisher Scientific SelectScreen (plus Nanosyn / Reaction Biology for CDK/cyclin lines)
T26 sequence (P16234 24-1089 D842V): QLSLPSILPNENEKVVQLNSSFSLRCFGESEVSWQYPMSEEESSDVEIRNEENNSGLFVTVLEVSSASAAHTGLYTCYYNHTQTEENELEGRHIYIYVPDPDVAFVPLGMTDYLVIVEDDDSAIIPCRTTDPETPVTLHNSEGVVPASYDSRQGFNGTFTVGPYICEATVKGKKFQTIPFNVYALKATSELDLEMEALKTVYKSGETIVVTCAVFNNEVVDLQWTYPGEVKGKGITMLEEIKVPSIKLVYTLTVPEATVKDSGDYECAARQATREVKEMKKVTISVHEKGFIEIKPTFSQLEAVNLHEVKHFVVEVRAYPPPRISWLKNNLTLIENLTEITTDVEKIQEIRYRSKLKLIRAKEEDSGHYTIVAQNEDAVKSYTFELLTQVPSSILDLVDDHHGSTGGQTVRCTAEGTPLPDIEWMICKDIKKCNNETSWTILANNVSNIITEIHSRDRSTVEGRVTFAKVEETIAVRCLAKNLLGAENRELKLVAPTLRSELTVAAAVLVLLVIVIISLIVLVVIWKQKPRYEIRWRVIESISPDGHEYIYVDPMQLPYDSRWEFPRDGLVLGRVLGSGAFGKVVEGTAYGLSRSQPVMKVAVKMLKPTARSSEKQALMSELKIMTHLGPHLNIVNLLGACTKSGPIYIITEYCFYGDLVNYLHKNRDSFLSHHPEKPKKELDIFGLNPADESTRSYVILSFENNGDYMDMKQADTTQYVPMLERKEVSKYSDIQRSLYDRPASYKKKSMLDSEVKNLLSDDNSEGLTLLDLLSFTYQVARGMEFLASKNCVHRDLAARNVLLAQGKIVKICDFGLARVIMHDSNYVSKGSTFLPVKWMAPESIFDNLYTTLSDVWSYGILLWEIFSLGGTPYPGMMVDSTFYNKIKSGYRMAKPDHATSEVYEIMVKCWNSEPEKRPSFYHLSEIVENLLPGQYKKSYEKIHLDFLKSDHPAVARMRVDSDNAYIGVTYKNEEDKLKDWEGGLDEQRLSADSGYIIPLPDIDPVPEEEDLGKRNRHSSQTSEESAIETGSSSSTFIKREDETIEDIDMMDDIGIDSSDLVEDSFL
How it was run: as §1

STK23 (MSSK1) = molecular target: T27, STK23 (MSSK1) (Homo sapiens, UniProt Q9UPE1)
T27 construct: purchased Thermo Fisher Scientific SelectScreen (plus Nanosyn / Reaction Biology for CDK/cyclin lines)
How it was run: as §1

DYRK1B = molecular target: T28, DYRK1B (Homo sapiens, UniProt Q9Y463)
T28 construct: purchased Thermo Fisher Scientific SelectScreen (plus Nanosyn / Reaction Biology for CDK/cyclin lines)
T28 sequence (Q9Y463 whole entry): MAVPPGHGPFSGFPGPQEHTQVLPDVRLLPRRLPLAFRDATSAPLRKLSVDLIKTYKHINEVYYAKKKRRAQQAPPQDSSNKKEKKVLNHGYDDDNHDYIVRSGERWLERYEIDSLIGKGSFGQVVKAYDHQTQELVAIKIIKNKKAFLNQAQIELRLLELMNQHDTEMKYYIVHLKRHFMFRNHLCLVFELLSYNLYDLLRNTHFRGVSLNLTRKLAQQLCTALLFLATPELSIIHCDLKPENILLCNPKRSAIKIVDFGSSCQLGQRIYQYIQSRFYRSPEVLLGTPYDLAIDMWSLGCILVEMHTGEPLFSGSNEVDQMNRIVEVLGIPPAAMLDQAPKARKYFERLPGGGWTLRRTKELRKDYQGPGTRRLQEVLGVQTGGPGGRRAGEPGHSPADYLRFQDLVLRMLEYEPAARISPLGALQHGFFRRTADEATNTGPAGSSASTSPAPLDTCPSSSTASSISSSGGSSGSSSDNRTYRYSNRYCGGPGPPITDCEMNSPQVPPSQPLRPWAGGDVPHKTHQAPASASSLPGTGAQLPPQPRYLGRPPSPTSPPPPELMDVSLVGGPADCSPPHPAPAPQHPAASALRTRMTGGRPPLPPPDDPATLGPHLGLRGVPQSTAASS
How it was run: as §1

CSNK1G3 (CK1 gamma 3) = molecular target: T29, CSNK1G3 (CK1 gamma 3) (Homo sapiens, UniProt Q9Y6M4)
T29 construct: purchased Thermo Fisher Scientific SelectScreen (plus Nanosyn / Reaction Biology for CDK/cyclin lines)
How it was run: as §1

TYK2 = molecular target: T30, TYK2 (Homo sapiens, UniProt P29597)
T30 construct: purchased Thermo Fisher Scientific SelectScreen (plus Nanosyn / Reaction Biology for CDK/cyclin lines)
How it was run: as §1

CDK2/cyclin A = molecular target: T31, CDK2/cyclin A (Homo sapiens, UniProt P24941)
T31 construct: purchased Thermo Fisher Scientific SelectScreen (plus Nanosyn / Reaction Biology for CDK/cyclin lines)
How it was run: as §1

ABL1 F317I = molecular target: T32, ABL1 F317I (Homo sapiens, UniProt P00519, F317I)
T32 construct: purchased Thermo Fisher Scientific SelectScreen (plus Nanosyn / Reaction Biology for CDK/cyclin lines)
How it was run: as §1

EPHB2 = molecular target: T33, EPHB2 (Homo sapiens, UniProt P29323)
T33 construct: purchased Thermo Fisher Scientific SelectScreen (plus Nanosyn / Reaction Biology for CDK/cyclin lines)
How it was run: as §1

ABL2 (Arg) = molecular target: T34, ABL2 (Arg) (Homo sapiens, UniProt P42684)
T34 construct: purchased Thermo Fisher Scientific SelectScreen (plus Nanosyn / Reaction Biology for CDK/cyclin lines)
How it was run: as §1

RPS6KA6 (RSK4) = molecular target: T35, RPS6KA6 (RSK4) (Homo sapiens, UniProt Q9UK32)
T35 construct: purchased Thermo Fisher Scientific SelectScreen (plus Nanosyn / Reaction Biology for CDK/cyclin lines)
How it was run: as §1

ROS1 = molecular target: T36, ROS1 (Homo sapiens, UniProt P08922)
T36 construct: purchased Thermo Fisher Scientific SelectScreen (plus Nanosyn / Reaction Biology for CDK/cyclin lines)
How it was run: as §1

SGK2 = molecular target: T37, SGK2 (Homo sapiens, UniProt Q9HBY8)
T37 construct: purchased Thermo Fisher Scientific SelectScreen (plus Nanosyn / Reaction Biology for CDK/cyclin lines)
How it was run: as §1

DYRK3 = molecular target: T38, DYRK3 (Homo sapiens, UniProt O43781)
T38 construct: purchased Thermo Fisher Scientific SelectScreen (plus Nanosyn / Reaction Biology for CDK/cyclin lines)
How it was run: as §1

NS(=O)(=O)c1ccc(Nc2ncc3cc4n(c3n2)C2(CCCCC2)C(=O)NN4)cc1 [INX-315]
inhibition at 0.1 µM (MET (cMet)): 6% | inhibition at 0.1 µM (JAK3): 24% | inhibition at 0.1 µM (ABL1 G250E): 7% | inhibition at 0.1 µM (ALK): 16% | inhibition at 0.1 µM (BTK): 10% | inhibition at 0.1 µM (FLT4 (VEGFR3)): 53% | inhibition at 0.1 µM (SGKL (SGK3)): 6% | inhibition at 0.1 µM (HIPK3 (YAK1)): 4% | inhibition at 0.1 µM (PHKG1): 4% | inhibition at 0.1 µM (FRK (PTK5)): 7% | inhibition at 0.1 µM (TBK1): 5% | inhibition at 0.1 µM (CSNK1G1 (CK1 gamma 1)): 1% | inhibition at 0.1 µM (FGFR1): 4% | inhibition at 0.1 µM (MARK2): 9% | inhibition at 0.1 µM (SRC): 8% | inhibition at 0.1 µM (CDK5/p35): 87% | inhibition at 0.1 µM (PAK6): 19% | inhibition at 0.1 µM (PHKG2): 2% | inhibition at 0.1 µM (MAP3K19 (YSK4)): 13% | inhibition at 0.1 µM (IKBKB (IKK beta)): 4% | inhibition at 0.1 µM (MAP2K2 (MEK2)): 17% | inhibition at 0.1 µM (STK24 (MST3)): 11% | inhibition at 0.1 µM (PIM1): 1% | inhibition at 0.1 µM (RPS6KA1 (RSK1)): 47% | inhibition at 0.1 µM (AKT1 (PKB alpha)): 6% | inhibition at 0.1 µM (PDGFRA D842V): 13% | inhibition at 0.1 µM (STK23 (MSSK1)): 6% | inhibition at 0.1 µM (DYRK1B): 1% | inhibition at 0.1 µM (CSNK1G3 (CK1 gamma 3)): -1% | inhibition at 0.1 µM (TYK2): 89% | inhibition at 0.1 µM (CDK2/cyclin A): 100% | inhibition at 0.1 µM (ABL1 F317I): 8% | inhibition at 0.1 µM (EPHB2): 20% | inhibition at 0.1 µM (ABL2 (Arg)): 14% | inhibition at 0.1 µM (RPS6KA6 (RSK4)): 56% | inhibition at 0.1 µM (ROS1): 19% | inhibition at 0.1 µM (SGK2): 5% | inhibition at 0.1 µM (DYRK3): 8%
